Measured values as given in BindingDB's records for doi:10.1021/jm00106a035 (University of Maryland, 1991).

Tests used:
[1] = In vitro inhibitory activity towards [3H]cocaine binding to rat striatal tissue
[2] = as above; remark: listed apart in the source

COC(=O)C1C2CC[C@H](C[C@@H]1OC(=O)Nc1ccccc1)N2C (stereo not given in full)
IC50 [1]: 5.6 µM

COC(=O)C1C2CC[C@H](C[C@@H]1OC(=O)Nc1cccc(N)c1)N2C (stereo not given in full)
IC50 [1]: 2.07 µM

COC(=O)C1C2CC[C@H](C[C@@H]1OC(=O)Nc1ccc([N+](=O)[O-])cc1)N2C (stereo not given in full)
IC50 [1]: 1.09 µM

COC(=O)C1C2CC[C@H](C[C@@H]1OC(=O)Nc1cccc([N+](=O)[O-])c1)N2C (stereo not given in full)
IC50 [1]: 0.037 µM

COC(=O)[C@H]1[C@@H](OC(=O)c2ccccc2)C[C@@H]2CC[C@H]1N2C [Cocaine (-)]
IC50 [2]: 0.065 µM
